How the values were obtained:
KC6141 cells [1] = experiment: Luminescence ATP detection assay; type: cell-based, mouse; conditions: KC6141 cells on ECM, 0.5 mM glucose, 24 hrs; EIPA 10.5 μM, MBQ-167 500 nM, MRT68921 600 nM
Procedure: (§1) Extracellular Matrix (ECM) Preparation. Skin fibroblasts were seeded on 6/12/96-well plates. One day after plating, cells were switched into DMEM (with pyruvate) with 10% dialysed FBS supplemented with or without 500 μM ^3H-proline and 100 μM Vitamin C. Cells were cultured for 6 days with media renewal every 24 h. After six days, skin fibroblasts were removed by washing in 1 ml or 500 μl or 100 μl per well PBS with 0.5% (v/v) Triton X-100 and 20 mM NH4OH. ECM was washed five times with PBS before plating KC6141 cells. The following day, KC6141 cells were switched into the indicated medium for 24 or 72 hrs.
Luminescence ATP Detection Assay. Intracellular ATP level was determined with luminescence ATP detection assay system (PerkinElmer) according to manufacturer's protocol. Briefly, KC6141 cells were grown on 96-well plates coated with or without ECM in the presence of 100 μl 0.5 mM glucose medium with or without EIPA (10.5 μM), MBQ-167 (500 nM), MRT68921 (600 nM) or their combinations for 24 hrs. 50 μl mammalian cell lysis solution was added and shaken for 5 minutes. Next, 50 μl substrate solution was added and shaken for five minutes. Finally, plate was adapted in dark for 10 minutes and luminescence was measured.

KC6141 mouse PDAC cells = experiment: Cell viability assay (CCK-8); type: cell-based; conditions: WT and IKKα KD 6141 cells on ECM, 0.5 mM glucose, 3 days; EIPA, IPI549 600 nM, MBQ-167 500 nM
Procedure: as §1
(§2) Cell viability assay. Cell viability was determined with Cell Counting Kit-8 assay (CCK-8 assay kit, Glpbio). Cells were plated in 96-well plates at a density of 3000 cells (MIA PaCa-2) or 1500 cells (KC6141) per well and incubated overnight prior to treatment. EIPA (10 μM), MRT68921 (600 nM) or erlotinib (2 μM, Sigma) were added to the wells for 72 and 96 hrs. Next, 10 μL of CCK-8 was added to each well. The optical density was read at 450 nm using a microplate reader (FilterMax F5, Molecular Devices, USA) at day 0, 1, 2, 3, and 4. For glutamine-deprivation assays, cells in 96-well plates were rinsed briefly in PBS and incubated in the 0.2 mM glutamine. Glutamine-free DMEM medium was supplemented with 0.2 mM glutamine in the presence of 10% dialysed FBS and 25 mM HEPES. For some conditions, the medium was supplemented with a final concentration of 2% BSA (Fraction V, fatty-acid-, nuclease and protease-free, Calbiochem). For all experiments, media were replaced every 24 hrs. Viable cell counts were obtained using CCK-8 assay described as above.
(§3) In some embodiments, cells were plated in 96-well plates coated with or without ECM at a density of 3000 cells (MIA PaCa-2, 1444, 1305, COLO 357/FG) or 1500 cells (KC6141) per well and incubated overnight prior to treatment. EIPA (10.5 μM), IPI549 (600 nM), MBQ-167 (500 nM), MRT68921 (600 nM) or erlotinib (2 μM, Sigma), ML385 (10 μM, Sigma), HCQ (10 μM or 80 μM) or their combinations were added to the wells for 24, 72 or 96 hrs. Next, 10 μL of CCK-8 was added to each well. The optical density was read at 450 nm using a microplate reader (FilterMax F5, Molecular Devices, USA) at day 0, 1, 2, 3, and 4. For glutamine-deprivation assays, cells in 96-well plates were rinsed briefly in PBS and incubated in the 0.2 mM glutamine. Glutamine-free DMEM medium was supplemented with 0.2 mM glutamine in the presence of 10% dialyzed FBS and 25 mM HEPES. For glucose-deprivation assays, cells in 96-well plates were rinsed briefly in PBS and incubated in the 0.5 mM glucose. Glucose-free DMEM medium was supplemented with 0.5 mM glucose in the presence of 10% dialyzed FBS and 25 mM HEPES. For some conditions, the medium was supplemented with a final concentration of 2% BSA (Fraction V, fatty-acid-, nuclease and protease-free, Calbiochem). For all experiments, media were replaced every 24 hrs. Viable cell counts were obtained using CCK-8 assay described as above.

KC6141 cells [2] = experiment: L-Amino acid assay; type: cell-based, mouse; conditions: KC6141 cells on ECM, 0.5 mM glucose, 24 hrs
Procedure: as §1
L-Amino Acid Assay. Total amount of free L-amino acids (except for glycine) were measured by L-Amino Acid Assay Kit (Colorimetric) (antibodies) according to manufacturer's protocol. Briefly, KC6141 cells were grown on 6-well plates coated with or without ECM and treated as above. The cells were resuspended at 10^6 cells/mL 1× Assay Buffer and were homogenized on ice and then centrifuged to remove debris. 50 μL of each L-Alanine standard or cell lysis was added into wells of a 96-well microtiter plate. Then 50 μL of Reaction Mix was added to each well. The well contents were mixed thoroughly and incubated for 90 minutes at 37° C. protected from light. The plate was read with a spectrophotometric microplate reader in the 540-570 nm range. The concentration of L-Amino Acids was calculated within samples by comparing the sample OD to the standard curve.

MIA PaCa-2 cells [3] = experiment: Immunoblot of p62 and LC3 (autophagic degradation); type: cell-based, human; conditions: MIA PaCa-2 cells, 10-40 μM HCQ
Procedure: Autophagy Induction. […] For starvation, cells were incubated in starvation medium (20 mM HEPES pH 7.4, 140 mM NaCl, 1 mM CaC2, 1 mM MgCl2, and 1% BSA) for 1.5 or 2 hrs. For glucose starvation, cells were washed three times with PBS and incubated in glucose-free DMEM containing 10% dialyzed FBS for 4 hrs. Immunoblot and immunoprecipitation. Cells were harvested and lysed in RIPA buffer (50 mM Tris-HCl, pH 7.4, 150 mM NaCl, 1% Triton X-100, 1% Na deoxycholate, 0.1% SDS, 1 mM EDTA) supplemented with complete protease inhibitor cocktail. Proteins were resolved on SDS-polyacrylamide gels, and then transferred to a polyvinylidene difluoride membrane. After blocking with 5% (w/v) fat free milk, the membrane was stained with the corresponding primary antibodies followed by incubation with the appropriate secondary HRP-conjugated antibodies, and development with ECL. Immunoreactive bands were detected by automatic X-ray film processor or KwikQuant Imager.

MIA PaCa-2 cells [4] = experiment: Cell viability assay (CCK-8); type: cell-based, human
Procedure: as §2, §3

MIA PaCa-2 cells [5] = experiment: LC3 puncta / LC3-LAMP1 immunofluorescence; type: cell-based, human; conditions: MIA PaCa-2 cells, 10, 20, 40, 80 μM HCQ
Procedure: Cell imaging. Immunostaining was performed as described^44. Cells were cultured on coverslips and fixed in 4% PFA for 10 min at room temperature. After washing twice in PBS, cells were incubated in PBS containing 10% FBS to block nonspecific sites of antibody adsorption. The cells were then incubated with the appropriate primary antibodies (diluted 1:100) and secondary antibodies (diluted 1:500) in PBS containing 10% FBS with or without 0.1% saponin. For cell macropinosome visualization, 24 hrs after seeding, the cells were serum starved for 18 hrs. Macropinosomes were marked using a high-molecular-mass (70 KD) TMR-Dextran (Invitrogen)-uptake assay, wherein TMR-DEX was added to serum-free medium at a final concentration of 1 mg/ml for 30 min at 37° C. At the end of the incubation period, the cells were rinsed five times in cold PBS and immediately fixed in 4% PFA. For tissue macropinosome visualization^45, fresh pancreata were cut into pieces with an approximate 5-mm cuboidal shape. […]
Quantification and statistics. To quantify the number of LC3 puncta, a total of 30 cells were recorded and analyzed using the LAS X measurement program on the TCS SPE Leica. Macropinosomes were quantified by using the ‘Analyze Particles’ feature in ImageJ (National Institutes of Health). […]

MIA PaCa-2 cells [6] = experiment: TMR-DEX macropinosome uptake assay; type: cell-based, human
Procedure: Cell imaging. Immunostaining was performed as described^44. Cells were cultured on coverslips and fixed in 4% PFA for 10 min at room temperature. After washing twice in PBS, cells were incubated in PBS containing 10% FBS to block nonspecific sites of antibody adsorption. The cells were then incubated with the appropriate primary antibodies (diluted 1:100) and secondary antibodies (diluted 1:500) in PBS containing 10% FBS with or without 0.1% saponin. For cell macropinosome visualization, 24 hrs after seeding, the cells were serum starved for 18 hrs. Macropinosomes were marked using a high-molecular-mass (70 KD) TMR-Dextran (Invitrogen)-uptake assay, wherein TMR-DEX was added to serum-free medium at a final concentration of 1 mg/ml for 30 min at 37° C. At the end of the incubation period, the cells were rinsed five times in cold PBS and immediately fixed in 4% PFA. For tissue macropinosome visualization^45, fresh pancreata were cut into pieces with an approximate 5-mm cuboidal shape. A tissue section was placed in a 24-well plate and injected 150 μL of 10 mg/ml TMR-DEX solution directly into the tissue piece. Another 250 μL of diluted TMR-DEX solution were added to the well to immerse the tissue section. The plate was incubated in the dark for 15 min at room temperature. Then the tissue section was rinsed twice in PBS before embedding in O.C.T. compound in a prelabeled cryomold. Specimens were frozen on dry ice and stored at −80° C. for further processing. Immunostaining was performed as described above. Images were captured using a TCS SPE Leica confocal microscope (Leica, Germany).
In some embodiments, Immunostaining was performed as described (Su et al., 2017). Cells were cultured on coverslips and fixed in 4% PFA for 10 min at room temperature or methanol for 10 min at −20° C. After washing twice in PBS, cells were incubated in PBS containing 10% FBS to block nonspecific sites of antibody adsorption. The cells were then incubated with the appropriate primary antibodies (diluted 1:100) and secondary antibodies (diluted 1:500) in PBS containing 10% FBS with or without 0.1% saponin. For cell macropinosome visualization, 24 hrs after seeding, the cells were serum starved for 18 hrs. Macropinosomes were marked using a high-molecular-mass (70 KDa) TMR-DEX (Invitrogen)-uptake assay, wherein TMR-DEX was added to serum-free medium at a final concentration of 1 mg/ml for 30 min at 37° C. At the end of the incubation period, the cells were rinsed five times in cold PBS and immediately fixed in 4% PFA. For tissue macropinosome visualization (Lee et al., 2019), fresh pancreata were cut into pieces with an approximate 5-mm cuboidal shape. Tissue fragments were placed in a 24-well plate and injected with 150 μL of 10 mg/ml TMR-DEX solution. Another 250 μL of diluted TMR-DEX solution were added to the well to immerse the tissue fragment. The plate was incubated in the dark for 15 min at room temperature. Then the tissue fragments were rinsed twice in PBS before embedding in O.C.T. compound in a prelabeled cryomold. Specimens were frozen on dry ice and stored at −80° C. for further processing. Immunostaining was performed as described above. Images were captured using a TCS SPE Leica confocal microscope (Leica, Germany).
Quantification and statistics. To quantify the number of LC3 puncta, a total of 30 cells were recorded and analyzed using the LAS X measurement program on the TCS SPE Leica. Macropinosomes were quantified by using the ‘Analyze Particles’ feature in ImageJ (National Institutes of Health). Macropinocytic uptake index was computed by determining the total macropinosome area in relation to the total cell area for each field and then by determining the average across all the fields (at least 6 fields). These measurements were done on randomly-selected fields of view. Two-tailed unpaired Student's t test was performed for statistical analysis using GraphPad Prism software. […]

CCn1c2ccccc2c2cc(-n3nncc3-c3ccccc3)ccc21 (racemic) [MBQ-167]
cellular ATP (KC6141 cells [1]): reduced
cell viability enhanced by extracellular matrix (ECM) (KC6141 mouse PDAC cells): suppressed
amino acid content (KC6141 cells [2]): reduced

CCN(CCO)CCCC(C)Nc1ccnc2cc(Cl)ccc12 (stereo not shown) [HCQ, hydroxychloroquine]
autophagic degradation (LC3-II, p62, lysosomal LC3 retention) (MIA PaCa-2 cells [3]): inhibited autophagic degradation
synergy in growth inhibition with EIPA or ML385 (MIA PaCa-2 cells [4]; HCQ 10 μM combined with EIPA or ML385): synergized
synergy in growth inhibition with MRT68921 (MIA PaCa-2 cells [4]; HCQ 10 μM combined with MRT68921): did not synergize
cell growth (MIA PaCa-2 cells [4]; WT and IKKα^Δ MIA PaCa-2 cells, 80 μM HCQ, 3 days): inhibited cell growth
cell viability (total viable cells relative to vehicle) (MIA PaCa-2 cells [4]; WT and IKKα^Δ MIA PaCa-2 cells, 10 or 80 μM HCQ, 3 days): suppression of cell viability
LC3-LAMP1 colocalization (MIA PaCa-2 cells [5]): enhanced LC3-LAMP1 colocalization in a concentration-dependent manner
disruption of MP (MIA PaCa-2 cells [6]; 10 μM HCQ, inferred from lack of synergy with MRT68921): barely disrupted MP
degradation of MP (DQ-BSA in TMR-DEX macropinosomes) (MIA PaCa-2 cells [6]; MIA PaCa-2 cells, 10, 20, 40, 80 μM HCQ): induced the degradation of MP at 10 μM, 20 μM, 40 μM, but not at 80 μM
MP (TMR-DEX and DQ-BSA co-localization, MP-related protein expression) (MIA PaCa-2 cells [6]; MIA PaCa-2 cells, 10-40 μM HCQ): stimulated MP
MP inhibition (MIA PaCa-2 cells [6]; MIA PaCa-2 cells, HCQ 10-80 μM): inhibited MP only at 80 μM
